In data set [1] the target is T1, full-length beta-Catenin (Uniprot ID P35222) (Homo sapiens, UniProt P35222).
T1 construct: 10 nM full-length beta-Catenin (Uniprot ID P35222)
T1 sequence (P35222 1-781): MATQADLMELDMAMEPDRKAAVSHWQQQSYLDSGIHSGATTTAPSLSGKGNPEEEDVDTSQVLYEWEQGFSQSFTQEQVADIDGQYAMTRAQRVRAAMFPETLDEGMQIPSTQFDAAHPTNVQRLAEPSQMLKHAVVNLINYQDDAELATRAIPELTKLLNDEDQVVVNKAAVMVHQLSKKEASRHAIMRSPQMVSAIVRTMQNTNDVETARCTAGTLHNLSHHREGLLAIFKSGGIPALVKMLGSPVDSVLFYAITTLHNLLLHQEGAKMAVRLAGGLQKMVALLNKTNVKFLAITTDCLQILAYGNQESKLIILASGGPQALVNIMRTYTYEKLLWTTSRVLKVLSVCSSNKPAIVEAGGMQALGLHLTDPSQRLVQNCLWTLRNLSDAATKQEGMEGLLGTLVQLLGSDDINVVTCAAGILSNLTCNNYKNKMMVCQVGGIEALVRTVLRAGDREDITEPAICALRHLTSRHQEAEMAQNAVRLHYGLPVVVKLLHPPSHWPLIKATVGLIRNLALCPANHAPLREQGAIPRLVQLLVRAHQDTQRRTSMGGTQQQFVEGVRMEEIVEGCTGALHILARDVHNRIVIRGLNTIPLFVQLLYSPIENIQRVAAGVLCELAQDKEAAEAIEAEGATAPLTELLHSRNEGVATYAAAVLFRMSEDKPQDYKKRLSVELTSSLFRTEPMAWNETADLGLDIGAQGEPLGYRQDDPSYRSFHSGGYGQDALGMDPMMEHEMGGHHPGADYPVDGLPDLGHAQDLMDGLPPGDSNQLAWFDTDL
The data set can be described thus: Fluorescence polarization IC50 (beta-catenin / 5FAM-TCF4 10-53 competition). It counts as binding. Conditions: fluorescence polarization.

The nature of a further data set: Solubility in PBS. It counts as physicochemical. The gist of the method: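 Read-out is the HPLC peak area of the supernatant from ultracentrifuged PBS solution, scaled against a 50 μM peptide DMSO injection; value reported as [(PBS area)/(DMSO area)]*50 uM.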
The mark [2] stands for this setting: beta-catenin, read-out: FP EC50.

A word on the Solubility: it is the dissolved amount per volume that the medium holds.

≈ marks a conversion by molar mass, not a printed value. Read-outs that look alike come from different tables or passages of the source.

For `CC(=O)N1CCC[C@]12CC=CCCCC1(CCCC=CCCCOC(=O)N3CC[C@@](C(=O)N[C@@H](Cc4ccccc4Cl)C(=O)N[C@@H](Cc4csc5ccccc45)C(=O)N[C@H](CO)[C@@H](C)O)(C3)NC(=O)[C@H](CC(C)C)NC(=O)[C@H](Cc3ccccc3)NC(=O)[C@H](C)NC(=O)[C@H](CCCCNC(C)C)NC(=O)[C@H](CC(=O)O)NC(=O)[C@H](CC(=O)O)NC1=O)NC(=O)[C@H](CC(C)(C)C)NC(=O)[C@H](CC(=O)O)NC2=O` (stereo partly drawn) [I-1313, Ac-PL3-Asp-Npg-B5-Asp-Asp-iPrLys-Ala-Phe-Leu-PyrS2-2C1F-BztA-Thro1], in data set [1] (read-out: beta-Catenin FP IC50), the IC50 is 12 nM. The “Solubility” value in “Solubility in PBS” came to 10 µM (≈ 20 µg/mL).
Consider `CC(=O)N1CCC[C@]12CC=CCCCC1(CCCC=CCCCOC(=O)N3CC[C@@](C(=O)N[C@@H](Cc4ccccc4C(F)(F)F)C(=O)N[C@@H](Cc4csc5ccccc45)C(=O)N[C@H](CO)[C@@H](C)O)(C3)NC(=O)[C@H](Cc3ccccc3)NC(=O)[C@H](Cc3ccccc3)NC(=O)[C@H](C)NC(=O)[C@H](C)NC(=O)[C@H](Cc3cccc(C(=O)O)c3)NC(=O)[C@H](CC(=O)O)NC1=O)NC(=O)[C@H](CC(C)(C)C)NC(=O)[C@H](CC(=O)O)NC2=O` (stereo partly drawn) [I-1343, Ac-PL3-Asp-Npg-B5-Asp-3COOHF-Ala-Ala-Phe-Phe-PyrS2-2F3MeF-BztA-Thro1], for which the IC50 in data set [1] (read-out: beta-Catenin FP IC50) worked out at 150 nM. Further, in “Solubility in PBS”, the “Solubility” value worked out at 10 µM (≈ 20.5 µg/mL).
In the case of `CC(C)C[C@@H]1NC(=O)[C@H](Cc2ccccc2)NC(=O)[C@H](C)NC(=O)[C@H](C)NC(=O)[C@H](CC(=O)O)NC(=O)[C@H](CC(=O)O)NC(=O)C2(CCCC=CCCCOC(=O)N3CC[C@@](C(=O)N[C@@H](Cc4ccccc4)C(=O)N[C@@H](Cc4csc5ccccc45)C(=O)N[C@@H](CCC(N)=O)C(N)=O)(C3)NC1=O)CCCC=CC[C@]1(CCCN1C(=O)CCCN(C)C)C(=O)N[C@@H](CC(=O)O)C(=O)N[C@@H](CC(C)(C)C)C(=O)N2` (stereo partly drawn) [I-1358, NdiMeButC-PL3-Asp-Npg-B5-Asp-Asp-Ala-Ala-Phe-Leu-PyrS2-Phe-BztA-Gln-NH2], the IC50 in data set [1] (setting [2]) and in data set [1] (read-out: beta-Catenin FP IC50) was 19 nM throughout. In the data set “Solubility in PBS”, the “Solubility” value stood at 10 µM (≈ 19.8 µg/mL).
Regarding `CC(C)C[C@@H]1NC(=O)[C@H](Cc2ccccc2)NC(=O)[C@H](C)NC(=O)[C@H](C)NC(=O)[C@H](CC(=O)O)NC(=O)[C@H](CC(=O)O)NC(=O)C2(CCCC=CCCCOC(=O)N3CC[C@@](C(=O)N[C@@H](Cc4ccccc4)C(=O)N[C@@H](Cc4csc5ccccc45)C(=O)N[C@@H](CCC(N)=O)C(N)=O)(C3)NC1=O)CCCC=CC[C@]1(CCCN1C(=O)CCCN(C)C)C(=O)N[C@@H](CC(=O)O)C(=O)N[C@@H](CC(C)(C)C)C(=O)N2` (stereo partly drawn) [I-1359, NdiMeButC-PL3-Asp-Npg-B5-Asp-Asp-Ala-Ala-Phe-Leu-PyrS2-Phe-BztA-Gln-NH2], the IC50 in data set [1] (setting [2]) and in data set [1] (read-out: beta-Catenin FP IC50) was 88 nM throughout. In addition, in “Solubility in PBS”, the “Solubility” value worked out at 34 µM (≈ 67.4 µg/mL).
Regarding `CC(=O)N1CCC[C@]12CC=CCCCC1(CCCC=CCCCOC(=O)N3CC[C@@](C(=O)N[C@@H](Cc4ccccc4)C(=O)N[C@@H](Cc4csc5ccccc45)C(=O)N[C@@H](CCC(N)=O)C(N)=O)(C3)NC(=O)[C@H](CC(C)C)NC(=O)[C@H](Cc3ccccc3)NC(=O)[C@H](C)NC(=O)[C@H](CCCCNC(C)C)NC(=O)[C@H]([C@@H](C)O)NC(=O)[C@H](CC(N)=O)NC1=O)NC(=O)[C@H](C)NC(=O)[C@H](CC(=O)O)NC2=O` (stereo partly drawn) [I-1376, Ac-PL3-Asp-Ala-B5-Asn-Thr-iPrLys-Ala-Phe-Leu-PyrS2-Phe-BztA-Gln-NH2], the IC50 in data set [1] (read-out: beta-Catenin FP IC50) is 4210 nM. In addition, the “Solubility” value in the data set “Solubility in PBS” amounted to 10 µM (≈ 19.4 µg/mL).
For `CC(=O)N1CCC[C@]12CC=CCCCC1(CCCC=CCCCOC(=O)N3CC[C@@](C(=O)N[C@@H](Cc4ccccc4)C(=O)N[C@@H](Cc4csc5ccccc45)C(=O)N[C@@H](CCCCN)C(N)=O)(C3)NC(=O)[C@H](CC(C)C)NC(=O)[C@H](Cc3ccccc3)NC(=O)[C@H](C)NC(=O)[C@H](CCCCNC(C)C)NC(=O)[C@H]([C@@H](C)O)NC(=O)[C@H](CC(N)=O)NC1=O)NC(=O)[C@H](C)NC(=O)[C@H](CC(=O)O)NC2=O` (stereo partly drawn) [I-1377, Ac-PL3-Asp-Ala-B5-Asn-Thr-iPrLys-Ala-Phe-Leu-PyrS2-Phe-BztA-Lys-NH2] the same measures were 1000 nM and 10 µM (≈ 19.4 µg/mL).
For `CC(=O)N1CCC[C@]12CC=CCCCC1(CCCC=CCCCOC(=O)N3CC[C@@](C(=O)N[C@@H](Cc4ccccc4)C(=O)N[C@@H](Cc4csc5ccccc45)C(=O)N[C@H](C(N)=O)[C@@H](C)O)(C3)NC(=O)[C@H](CC(C)C)NC(=O)[C@H](Cc3ccccc3)NC(=O)[C@H](C)NC(=O)[C@H](CCCCNC(C)C)NC(=O)[C@H]([C@@H](C)O)NC(=O)[C@H](CC(N)=O)NC1=O)NC(=O)[C@H](C)NC(=O)[C@H](CC(=O)O)NC2=O` (stereo partly drawn) [I-1378, Ac-PL3-Asp-Ala-B5-Asn-Thr-iPrLys-Ala-Phe-Leu-PyrS2-Phe-BztA-Thr-NH2], in that order: 6170 nM and 10 µM (≈ 19.1 µg/mL).
For `CC(=O)N1CCC[C@]12CC=CCCCC1(CCCC=CCCCOC(=O)N3CC[C@@](C(=O)N[C@@H](Cc4ccccc4)C(=O)N[C@@H](Cc4csc5ccccc45)C(=O)N[C@@H](CCC(N)=O)C(N)=O)(C3)NC(=O)[C@H](CC(C)C)NC(=O)[C@H](Cc3ccccc3)NC(=O)[C@H](C)NC(=O)[C@H](CCCCNC(C)C)NC(=O)[C@H](CCC(N)=O)NC(=O)[C@H](CC(N)=O)NC1=O)NC(=O)[C@H](C)NC(=O)[C@H](CC(=O)O)NC2=O` (stereo partly drawn) [I-1379, Ac-PL3-Asp-Ala-B5-Asn-Gln-iPrLys-Ala-Phe-Leu-PyrS2-Phe-BztA-Gln-NH2], in that order: 1440 nM and 10 µM (≈ 19.7 µg/mL).
As for `CC(=O)N1CCC[C@]12CC=CCCCC1(CCCC=CCCCOC(=O)N3CC[C@@](C(=O)N[C@@H](Cc4ccccc4)C(=O)N[C@@H](Cc4csc5ccccc45)C(=O)N[C@@H](CCC(N)=O)C(N)=O)(C3)NC(=O)[C@H](CC(C)C)NC(=O)[C@H](Cc3ccccc3)NC(=O)[C@H](C)NC(=O)[C@H](CCCCNC(C)C)NC(=O)[C@H]([C@@H](C)O)NC(=O)[C@H](CC(=O)O)NC1=O)NC(=O)[C@H](C)NC(=O)[C@H](CC(N)=O)NC2=O` (stereo partly drawn) [I-1382, Ac-PL3-Asn-Ala-B5-Asp-Thr-iPrLys-Ala-Phe-Leu-PyrS2-Phe-BztA-Gln-NH2], in data set [1] (read-out: beta-Catenin FP IC50), the IC50 worked out at 2850 nM. In addition, in “Solubility in PBS”, the “Solubility” value came out at 10 µM (≈ 19.4 µg/mL).
For `CC(=O)N1CCC[C@]12CC=CCCCC1(CCCC=CCCCOC(=O)N3CC[C@@](C(=O)N[C@@H](Cc4ccccc4)C(=O)N[C@@H](Cc4csc5ccccc45)C(=O)N[C@@H](CCCCN)C(N)=O)(C3)NC(=O)[C@H](CC(C)C)NC(=O)[C@H](Cc3ccccc3)NC(=O)[C@H](C)NC(=O)[C@H](CCCCNC(C)C)NC(=O)[C@H]([C@@H](C)O)NC(=O)[C@H](CC(=O)O)NC1=O)NC(=O)[C@H](C)NC(=O)[C@H](CC(N)=O)NC2=O` (stereo partly drawn) [I-1383, Ac-PL3-Asn-Ala-B5-Asp-Thr-iPrLys-Ala-Phe-Leu-PyrS2-Phe-BztA-Lys-NH2] the same measures were 1660 nM and 10 µM (≈ 19.4 µg/mL).
For `CC(=O)N1CCC[C@]12CC=CCCCC1(CCCC=CCCCOC(=O)N3CC[C@@](C(=O)N[C@@H](Cc4ccccc4)C(=O)N[C@@H](Cc4csc5ccccc45)C(=O)N[C@@H](CCC(N)=O)C(N)=O)(C3)NC(=O)[C@H](CC(C)C)NC(=O)[C@H](Cc3ccccc3)NC(=O)[C@H](C)NC(=O)[C@H](CCCCNC(C)C)NC(=O)[C@H](CCC(N)=O)NC(=O)[C@H](CC(=O)O)NC1=O)NC(=O)[C@H](C)NC(=O)[C@H](CC(N)=O)NC2=O` (stereo partly drawn) [I-1385, Ac-PL3-Asn-Ala-B5-Asp-Gln-iPrLys-Ala-Phe-Leu-PyrS2-Phe-BztA-Gln-NH2], in that order: 1080 nM and 10 µM (≈ 19.7 µg/mL).
For `CC(=O)N1CCC[C@]12CC=CCCCC1(CCCC=CCCCOC(=O)N3CC[C@@](C(=O)N[C@@H](Cc4ccccc4)C(=O)N[C@@H](Cc4csc5ccccc45)C(=O)N[C@@H](CCC(N)=O)C(N)=O)(C3)NC(=O)[C@H](CC(C)C)NC(=O)[C@H](Cc3ccccc3)NC(=O)[C@H](C)NC(=O)[C@H](CCCCNC(C)C)NC(=O)[C@H](CCCCN)NC(=O)[C@H](CC(=O)O)NC1=O)NC(=O)[C@H](C)NC(=O)[C@H](CC(N)=O)NC2=O` (stereo partly drawn) [I-1386, Ac-PL3-Asn-Ala-B5-Asp-Lys-iPrLys-Ala-Phe-Leu-PyrS2-Phe-BztA-Gln-NH2] the same measures were 2250 nM and 10 µM (≈ 19.7 µg/mL).
As to `CC(=O)N1CCC[C@]12CC=CCCCC1(CCCC=CCCCOC(=O)N3CC[C@@](C(=O)N[C@@H](Cc4ccccc4)C(=O)N[C@@H](Cc4ccc5ccccc5c4)C(=O)N[C@@H](CCC(N)=O)C(N)=O)(C3)NC(=O)[C@H](CC(C)C)NC(=O)[C@H](Cc3ccccc3)NC(=O)[C@H](C)NC(=O)[C@H](CCCCNC(C)C)NC(=O)[C@H]([C@@H](C)O)NC(=O)[C@H](CC(=O)O)NC1=O)NC(=O)[C@H](C)NC(=O)[C@H](CC(N)=O)NC2=O` (stereo partly drawn) [I-1387, Ac-PL3-Asn-Ala-B5-Asp-Thr-iPrLys-Ala-Phe-Leu-PyrS2-Phe-2NapA-Gln-NH2], in data set [1] (read-out: beta-Catenin FP IC50), the IC50 amounted to 6940 nM. Moreover, the “Solubility” value in “Solubility in PBS” stood at 10 µM (≈ 19.3 µg/mL).

These data come from patent US20240116985A1, “STAPLED PEPTIDES AND METHODS THEREOF” (priority 2020, published 2024).
